Measured values taken from ChEMBL document CHEMBL3885881, “DrugMatrix”.

Species on record: Rattus norvegicus
Test: DrugMatrix - Regimen: Daily Repeat
Format: toxicity, organism-based, Sprague-Dawley
Set-up: regimen Daily Repeat, gender Male, age 6-8 weeks
Conditions: in vivo, iv, vehicle 100 % SALINE; for ABSOLUTE BASOPHIL / ABSOLUTE EOSINOPHIL / ABSOLUTE LYMPHOCYTE / ABSOLUTE MONOCYTE / ABSOLUTE SEGMENTED NEUTROPHIL / BASOPHIL / EOSINOPHIL / ERYTHROCYTE COUNT / HEMATOCRIT / HEMOGLOBIN / LEUKOCYTE COUNT / LYMPHOCYTE / MEAN CORPUSCULAR HEMOGLOBIN / MEAN CORPUSCULAR HEMOGLOBIN CONCENTRATION / MEAN CORPUSCULAR VOLUME / MONOCYTE / NEUTROPHIL / NUCLEATED RED BLOOD CELLS / PLATELET COUNT: tissue Blood; for ALANINE AMINOTRANSFERASE / ALBUMIN / ALKALINE PHOSPHATASE / ASPARTATE AMINOTRANSFERASE / BLOOD UREA NITROGEN / CARBON DIOXIDE / CHLORIDE / CHOLESTEROL / CREATINE PHOSPHOKINASE / CREATININE / GLUCOSE / LACTATE DEHYDROGENASE / LIPASE / PHOSPHORUS / POTASSIUM / SODIUM / TOTAL BILIRUBIN / TOTAL PROTEIN / URIC ACID: tissue Plasma
[1] = 0 mg/kg, 72 h, dose level Control, time 3 day
[2] = 0 mg/kg, 120 h, dose level Control, time 5 day
[3] = 2 mg/kg, 72 h, dose level Low, time 3 day

For Cc1ccc(N(CC2=NCCN2)c2cccc(O)c2)cc1 [PHENTOLAMINE], which “ABSOLUTE BASOPHIL” value [1] is on record?
Its value is 0 CELLS/uL.

And the “ABSOLUTE EOSINOPHIL” value [1]?
Its value is 53.17 CELLS/uL.

And the “ABSOLUTE LYMPHOCYTE” value [1]?
The value was 13731.5 CELLS/uL.

And the “ABSOLUTE MONOCYTE” value [1]?
Its value is 186.17 CELLS/uL.

And the “ABSOLUTE SEGMENTED NEUTROPHIL” value [1]?
The value was 1645.83 CELLS/uL.

What about the BASOPHIL [1] of the same compound?
The BASOPHIL was 0%.

And the EOSINOPHIL [1]?
The EOSINOPHIL was 0.33%.

What about the “ERYTHROCYTE COUNT” value [1] of the same compound?
Its value is 5.57 x10E6/uL.

And the HEMATOCRIT [1]?
The HEMATOCRIT was 36.33%.

What about the HEMOGLOBIN [1] of the same compound?
The HEMOGLOBIN was 13.47 G/DL.

What about the “LEUKOCYTE COUNT” value [1] of the same compound?
Its value is 15.62 x10E3/uL.

What about the LYMPHOCYTE [1] of the same compound?
The LYMPHOCYTE was 88.5%.

And the “MEAN CORPUSCULAR HEMOGLOBIN” value [1]?
The value was 24.22 pg.

What about the “MEAN CORPUSCULAR HEMOGLOBIN CONCENTRATION” value [1] of the same compound?
The value was 37.1 G/DL.

What about the “MEAN CORPUSCULAR VOLUME” value [1] of the same compound?
The value was 65.35 fL.

And the MONOCYTE [1]?
The MONOCYTE was 1.17%.

And the NEUTROPHIL [1]?
The NEUTROPHIL was 10%.

And the “NUCLEATED RED BLOOD CELLS” value [1]?
Its value is 0.17 /100WBC.

And the “PLATELET COUNT” value [1]?
The value was 1295.5 x10E3/uL.

What about the “ALANINE AMINOTRANSFERASE” value [1] of the same compound?
The value was 46.83 u/L.

What about the ALBUMIN [1] of the same compound?
Its ALBUMIN is 4.37 G/DL.

What about the “ALKALINE PHOSPHATASE” value [1] of the same compound?
Its value is 414.33 u/L.

What about the “ASPARTATE AMINOTRANSFERASE” value [1] of the same compound?
Its value is 72.5 u/L.

What about the “BLOOD UREA NITROGEN” value [1] of the same compound?
The value was 17 mg/dL.

And the “CARBON DIOXIDE” value [1]?
Its value is 23.5 mmol/L.

And the CHLORIDE [1]?
The CHLORIDE was 102 MEQ/L.

What about the CHOLESTEROL [1] of the same compound?
Its CHOLESTEROL is 80.33 mg/dL.

And the “CREATINE PHOSPHOKINASE” value [1]?
The value was 207.83 u/L.

What about the CREATININE [1] of the same compound?
Its CREATININE is 0.22 mg/dL.

And the GLUCOSE [1]?
The GLUCOSE was 172.17 mg/dL.

What about the “LACTATE DEHYDROGENASE” value [1] of the same compound?
The value was 131 u/L.

And the LIPASE [1]?
Its LIPASE is 10.33 u/L.

And the PHOSPHORUS [1]?
The PHOSPHORUS was 11.75 mg/dL.

What about the POTASSIUM [1] of the same compound?
Its POTASSIUM is 6.83 MEQ/L.

What about the SODIUM [1] of the same compound?
The SODIUM was 145.28 MEQ/L.

And the “TOTAL BILIRUBIN” value [1]?
The value was 0.22 mg/dL.

And the “TOTAL PROTEIN” value [1]?
Its value is 6.22 G/DL.

What about the “URIC ACID” value [1] of the same compound?
The value was 1.9 mg/dL.

What about the “ABSOLUTE BASOPHIL” value [2] of the same compound?
The value was 0 CELLS/uL.

What about the “ABSOLUTE EOSINOPHIL” value [2] of the same compound?
Its value is 33 CELLS/uL.

What about the “ABSOLUTE LYMPHOCYTE” value [2] of the same compound?
The value was 12184 CELLS/uL.

And the “ABSOLUTE MONOCYTE” value [2]?
The value was 108 CELLS/uL.

And the “ABSOLUTE SEGMENTED NEUTROPHIL” value [2]?
The value was 958.33 CELLS/uL.

And the BASOPHIL [2]?
The BASOPHIL was 0%.

What about the EOSINOPHIL [2] of the same compound?
The EOSINOPHIL was 0.17%.

What about the “ERYTHROCYTE COUNT” value [2] of the same compound?
Its value is 5.9 x10E6/uL.

And the HEMATOCRIT [2]?
Its HEMATOCRIT is 36.58%.

And the HEMOGLOBIN [2]?
Its HEMOGLOBIN is 13.33 G/DL.

What about the “LEUKOCYTE COUNT” value [2] of the same compound?
Its value is 13.28 x10E3/uL.

What about the LYMPHOCYTE [2] of the same compound?
Its LYMPHOCYTE is 91.17%.

And the “MEAN CORPUSCULAR HEMOGLOBIN” value [2]?
Its value is 22.67 pg.

And the “MEAN CORPUSCULAR HEMOGLOBIN CONCENTRATION” value [2]?
The value was 36.47 G/DL.

And the “MEAN CORPUSCULAR VOLUME” value [2]?
Its value is 62.13 fL.

What about the MONOCYTE [2] of the same compound?
Its MONOCYTE is 0.83%.

And the NEUTROPHIL [2]?
Its NEUTROPHIL is 7.83%.

What about the “NUCLEATED RED BLOOD CELLS” value [2] of the same compound?
The value was 0.33 /100WBC.

What about the “PLATELET COUNT” value [2] of the same compound?
The value was 1475.33 x10E3/uL.

And the “ALANINE AMINOTRANSFERASE” value [2]?
The value was 47 u/L.

And the ALBUMIN [2]?
Its ALBUMIN is 4.35 G/DL.

What about the “ALKALINE PHOSPHATASE” value [2] of the same compound?
Its value is 368.33 u/L.

What about the “ASPARTATE AMINOTRANSFERASE” value [2] of the same compound?
The value was 90.83 u/L.

What about the “BLOOD UREA NITROGEN” value [2] of the same compound?
Its value is 15.5 mg/dL.

What about the “CARBON DIOXIDE” value [2] of the same compound?
The value was 26.5 mmol/L.

What about the CHLORIDE [2] of the same compound?
The CHLORIDE was 103.33 MEQ/L.

What about the CHOLESTEROL [2] of the same compound?
Its CHOLESTEROL is 71.83 mg/dL.

And the “CREATINE PHOSPHOKINASE” value [2]?
The value was 585.33 u/L.

And the CREATININE [2]?
The CREATININE was 0.19 mg/dL.

And the GLUCOSE [2]?
Its GLUCOSE is 171.17 mg/dL.

And the “LACTATE DEHYDROGENASE” value [2]?
The value was 388.83 u/L.

And the LIPASE [2]?
The LIPASE was 10.83 u/L.

And the PHOSPHORUS [2]?
The PHOSPHORUS was 11.75 mg/dL.

And the POTASSIUM [2]?
Its POTASSIUM is 6.21 MEQ/L.

What about the SODIUM [2] of the same compound?
Its SODIUM is 143.7 MEQ/L.

What about the “TOTAL BILIRUBIN” value [2] of the same compound?
The value was 0.17 mg/dL.

And the “TOTAL PROTEIN” value [2]?
Its value is 6.17 G/DL.

What about the “URIC ACID” value [2] of the same compound?
The value was 1.98 mg/dL.

And the “ABSOLUTE BASOPHIL” value [3]?
The value was 0 CELLS/uL.

What about the “ABSOLUTE EOSINOPHIL” value [3] of the same compound?
The value was 44.67 CELLS/uL.

What about the “ABSOLUTE LYMPHOCYTE” value [3] of the same compound?
The value was 11097.67 CELLS/uL.

And the “ABSOLUTE MONOCYTE” value [3]?
The value was 122.33 CELLS/uL.

And the “ABSOLUTE SEGMENTED NEUTROPHIL” value [3]?
Its value is 968.67 CELLS/uL.

And the BASOPHIL [3]?
Its BASOPHIL is 0%.

And the EOSINOPHIL [3]?
Its EOSINOPHIL is 0.33%.

What about the “ERYTHROCYTE COUNT” value [3] of the same compound?
Its value is 5.48 x10E6/uL.

What about the HEMATOCRIT [3] of the same compound?
The HEMATOCRIT was 35.63%.

And the HEMOGLOBIN [3]?
The HEMOGLOBIN was 13.4 G/DL.

What about the “LEUKOCYTE COUNT” value [3] of the same compound?
Its value is 12.23 x10E3/uL.

What about the LYMPHOCYTE [3] of the same compound?
Its LYMPHOCYTE is 90.67%.

What about the “MEAN CORPUSCULAR HEMOGLOBIN” value [3] of the same compound?
Its value is 24.5 pg.

And the “MEAN CORPUSCULAR HEMOGLOBIN CONCENTRATION” value [3]?
The value was 37.6 G/DL.

What about the “MEAN CORPUSCULAR VOLUME” value [3] of the same compound?
Its value is 65.03 fL.

What about the MONOCYTE [3] of the same compound?
The MONOCYTE was 1%.

And the NEUTROPHIL [3]?
The NEUTROPHIL was 8%.

What about the “NUCLEATED RED BLOOD CELLS” value [3] of the same compound?
Its value is 0 /100WBC.

What about the “PLATELET COUNT” value [3] of the same compound?
Its value is 1379.67 x10E3/uL.

And the “ALANINE AMINOTRANSFERASE” value [3]?
Its value is 31.67 u/L.

What about the ALBUMIN [3] of the same compound?
The ALBUMIN was 4.47 G/DL.

And the “ALKALINE PHOSPHATASE” value [3]?
The value was 406 u/L.

And the “ASPARTATE AMINOTRANSFERASE” value [3]?
Its value is 74 u/L.

What about the “BLOOD UREA NITROGEN” value [3] of the same compound?
The value was 18.67 mg/dL.

What about the “CARBON DIOXIDE” value [3] of the same compound?
The value was 19.67 mmol/L.

What about the CHLORIDE [3] of the same compound?
Its CHLORIDE is 104.67 MEQ/L.

And the CHOLESTEROL [3]?
The CHOLESTEROL was 76.67 mg/dL.

And the “CREATINE PHOSPHOKINASE” value [3]?
Its value is 368.67 u/L.

What about the CREATININE [3] of the same compound?
Its CREATININE is 0.22 mg/dL.

What about the GLUCOSE [3] of the same compound?
Its GLUCOSE is 166 mg/dL.

And the “LACTATE DEHYDROGENASE” value [3]?
Its value is 137.33 u/L.

And the LIPASE [3]?
The LIPASE was 10.33 u/L.

What about the PHOSPHORUS [3] of the same compound?
Its PHOSPHORUS is 12.63 mg/dL.

And the POTASSIUM [3]?
Its POTASSIUM is 6.72 MEQ/L.

And the SODIUM [3]?
Its SODIUM is 145.53 MEQ/L.

And the “TOTAL BILIRUBIN” value [3]?
Its value is 0.13 mg/dL.

What about the “TOTAL PROTEIN” value [3] of the same compound?
The value was 6.27 G/DL.
